Test results as given in patent publication US8834899B2, “Photodynamic therapy-generated mesothelioma vaccine” (The Trustees of the University of Pennsylvania, priority 2006, dated 2014).

Test system: AB1 murine mesothelioma cells
Assay: Clonogenic assay after Photofrin PDT
Format: cell-based
Details: for % Cell Kill / Clonogenic Results (colonies) / Clonogenic Results, Averaged numbers: Photofrin 24 hours
Description: Initial tests were conducted in order to explore the possibility of generating inactivated whole tumor cells from PDT. Three variables were manipulated: Photofrin® incubation time, Photofrin® dosage, and light dosage. Since Photofrin® incubation times may determine cellular uptake—either just within the membrane or further into the cytoplasm—the cells were incubated for either 3-hours or 24-hours, followed by a 3-hour incubation in drug-free media. Second, cells were given a Photofrin dose of either 10 μg/mL or 25 μg/mL. Dosages were determined by consulting both past papers and another PDT research laboratory. Lastly, light dosage was varied. The light source was a Laserscope KTP/YAG laser with a 630 nm Dye Module. […] Laser light dosage was measured in fluence or j/cm^2. Light dosages ranged from 0.125 j/cm^2 to 1.0 j/cm^2.
Later in the study, dose-response curves followed by clonogenic assays, were performed in order to determine appropriate PDT light dosages for complete cell killing. In these tests, cells were incubated for 24-hours and exposed to high light dosages ranging from 1.0 j/cm^2 to 3.0 j/cm^2. The clonogenic assay measured cell plating efficiency and proliferation and involved plating cells at very low concentrations. After one week, resultant colonies that had formed were counted and compared against controls that had not been lit.
All three factors were modified with the intent of producing complete cell death. Cells were incubated in 25 μg/mL of Photofrin® for 3 hours and lit with 2.0 j/cm^2 of light at 630 nm. […] A clonogenic assay was performed to explore the dose-response relationship at this level of light, and the results are summarized in Table 2. For the assay, cells were incubated in 25 μg/mL of Photofrin® for 24 hours and lit with 1.0 to 3.0 j/cm^2 of light. […] After this test, PDT vaccines were generated by incubating cells in 25 μg/mL of Photofrin® for 24 hours and lit with 3.0 j/cm^2 of light.

[1] = 250 cells per plate, 1.5 j/cm^2
[2] = 500 cells per plate, 1.0 j/cm^2
[3] = 500 cells per plate, 1.5 j/cm^2
[4] = 500 cells per plate, 2.0 j/cm^2
[5] = 500 cells per plate, 2.0 j/cm^2 (100 mill), lit at high cell concentration
[6] = 500 cells per plate, 2.5 j/cm^2
[7] = 500 cells per plate, 3.0 j/cm^2
[8] = 500 cells per plate, 3.0 j/cm^2 (100 mill), lit at high cell concentration
[9] = 1000 cells per plate, 1.0 j/cm^2
[10] = 1000 cells per plate, 1.5 j/cm^2
[11] = 1000 cells per plate, 2.0 j/cm^2
[12] = 1000 cells per plate, 2.0 j/cm^2 (100 mill), lit at high cell concentration
[13] = 1000 cells per plate, 2.5 j/cm^2
[14] = 1000 cells per plate, 3.0 j/cm^2
[15] = 1000 cells per plate, 3.0 j/cm^2 (100 mill), lit at high cell concentration

Photofrin
cell kill in clonogenic assay (in words) (25 μg/mL Photofrin 24 hours, all conditions, light 1.0 to 3.0 j/cm^2 at 630 nm): nearly complete cell kill in all conditions | % Cell Kill [1]: 100% | Clonogenic Results (colonies) [1]: 0 | Clonogenic Results, Averaged numbers [1]: 0.00 | % Cell Kill [2]: 100% | Clonogenic Results (colonies) [2]: 0 | Clonogenic Results, Averaged numbers [2]: 0.00 | % Cell Kill [3]: 100% | Clonogenic Results (colonies) [3]: 0 | Clonogenic Results, Averaged numbers [3]: 0.00 | % Cell Kill [4]: 100% | Clonogenic Results (colonies) [4]: 0 | Clonogenic Results, Averaged numbers [4]: 0.00 | % Cell Kill [5]: 100% | Clonogenic Results (colonies) [5]: 0 | Clonogenic Results, Averaged numbers [5]: 0 | % Cell Kill [6]: 100% | Clonogenic Results (colonies) [6]: 0 | Clonogenic Results, Averaged numbers [6]: 0 | % Cell Kill [7]: 100% | Clonogenic Results (colonies) [7]: 0 | Clonogenic Results, Averaged numbers [7]: 0 | % Cell Kill [8]: 99.67% | Clonogenic Results, Averaged numbers [8]: 0.33 | % Cell Kill [9]: 99.85% | Clonogenic Results, Averaged numbers [9]: 0.33 | % Cell Kill [10]: 100.00% | Clonogenic Results (colonies) [10]: 0 | Clonogenic Results, Averaged numbers [10]: 0.00 | % Cell Kill [11]: 99.85% | Clonogenic Results, Averaged numbers [11]: 0.33 | % Cell Kill [12]: 100% | Clonogenic Results (colonies) [12]: 0 | Clonogenic Results, Averaged numbers [12]: 0 | % Cell Kill [13]: 100% | Clonogenic Results (colonies) [13]: 0 | Clonogenic Results, Averaged numbers [13]: 0 | % Cell Kill [14]: 100% | Clonogenic Results (colonies) [14]: 0 | Clonogenic Results, Averaged numbers [14]: 0 | % Cell Kill [15]: 99.70% | Clonogenic Results, Averaged numbers [15]: 0.67
